In the NIST ThermoML archive (doi:10.1021/je9002114):
Numbers after ± are expanded uncertainties.

How the values were obtained:
[1] = xn = mol fraction of the nth substance listed; conditions: 298.15 K, Ring tensiometer
[2] = 298.15 K; for surface tension liquid-gas: Ring tensiometer; for mass density: 101.33 kPa, Liquid

CCCCCOC(C)=O [pentyl ethanoate] + C1COCCO1
[1]
Conditions	surface tension liquid-gas [mN/m]
x1 = 0.05	32.35 ± 0.49
x1 = 0.1026	31.65 ± 0.48
x1 = 0.1516	31.05 ± 0.47
x1 = 0.2062	30.52 ± 0.47
x1 = 0.2562	30.05 ± 0.46
x1 = 0.311	29.48 ± 0.46
x1 = 0.3637	29.01 ± 0.45
x1 = 0.4209	28.58 ± 0.45
x1 = 0.4616	28.27 ± 0.44
x1 = 0.5112	27.92 ± 0.44
x1 = 0.5614	27.55 ± 0.44
x1 = 0.6136	27.3 ± 0.43
x1 = 0.6558	27.07 ± 0.43
x1 = 0.7043	26.89 ± 0.43
x1 = 0.7538	26.71 ± 0.43
x1 = 0.8033	26.56 ± 0.43
x1 = 0.8511	26.39 ± 0.42
x1 = 0.8956	26.26 ± 0.42
x1 = 0.9449	26.12 ± 0.42

CCCCCCOC(C)=O [hexyl ethanoate]
[2]
Conditions	mass density [kg/m3]	surface tension liquid-gas [mN/m]
–	868.52 ± 0.84	26.39 ± 0.42

CCCCOC(C)=O [butyl ethanoate] + CN(C)C=O
[1]
Conditions	surface tension liquid-gas [mN/m]
x1 = 0.0508	35.02 ± 0.52
x1 = 0.0995	33.45 ± 0.5
x1 = 0.1441	32.35 ± 0.49
x1 = 0.1809	31.7 ± 0.48
x1 = 0.25	30.5 ± 0.47
x1 = 0.2962	29.75 ± 0.46
x1 = 0.3447	29.19 ± 0.45
x1 = 0.3904	28.66 ± 0.45
x1 = 0.4455	28.19 ± 0.44
x1 = 0.4954	27.69 ± 0.44
x1 = 0.5443	27.35 ± 0.43
x1 = 0.5956	27.07 ± 0.43
x1 = 0.648	26.66 ± 0.43
x1 = 0.6993	26.36 ± 0.42
x1 = 0.7466	26.16 ± 0.42
x1 = 0.7935	25.81 ± 0.42
x1 = 0.8467	25.65 ± 0.42
x1 = 0.8983	25.47 ± 0.42
x1 = 0.9464	25.26 ± 0.41

CCCCOC(C)=O [butyl ethanoate] + C1COCCO1
[1]
Conditions	surface tension liquid-gas [mN/m]
x1 = 0.05	31.19 ± 0.47
x1 = 0.0975	30.51 ± 0.47
x1 = 0.1457	29.87 ± 0.46
x1 = 0.1995	29.32 ± 0.46
x1 = 0.2485	28.88 ± 0.45
x1 = 0.2883	28.55 ± 0.45
x1 = 0.3445	28.13 ± 0.44
x1 = 0.3932	27.79 ± 0.44
x1 = 0.4475	27.47 ± 0.44
x1 = 0.4929	27.21 ± 0.43
x1 = 0.5486	26.93 ± 0.43
x1 = 0.592	26.69 ± 0.43
x1 = 0.6429	26.45 ± 0.43
x1 = 0.6933	26.2 ± 0.42
x1 = 0.7466	25.97 ± 0.42
x1 = 0.7954	25.8 ± 0.42
x1 = 0.8438	25.56 ± 0.42
x1 = 0.8901	25.36 ± 0.41
x1 = 0.9419	25.16 ± 0.41

CCCCOC(C)=O [butyl ethanoate]
[2]
Conditions	mass density [kg/m3]	surface tension liquid-gas [mN/m]
–	876.38 ± 0.82	24.85 ± 0.41

CCCCCOC(C)=O [pentyl ethanoate]
[2]
Conditions	mass density [kg/m3]	surface tension liquid-gas [mN/m]
–	870.17 ± 0.83	25.21 ± 0.41

CCCCCCOC(C)=O [hexyl ethanoate] + CN(C)C=O
[1]
Conditions	surface tension liquid-gas [mN/m]
x1 = 0.0495	35.78 ± 0.52
x1 = 0.0964	35.06 ± 0.52
x1 = 0.1435	34.43 ± 0.51
x1 = 0.198	33.72 ± 0.5
x1 = 0.2432	33.16 ± 0.5
x1 = 0.299	32.51 ± 0.49
x1 = 0.349	31.96 ± 0.48
x1 = 0.397	31.46 ± 0.48
x1 = 0.444	31.02 ± 0.47
x1 = 0.4969	30.57 ± 0.47
x1 = 0.5461	30.12 ± 0.46
x1 = 0.5945	29.72 ± 0.46
x1 = 0.6434	29.35 ± 0.46
x1 = 0.6908	29.01 ± 0.45
x1 = 0.7457	28.61 ± 0.45
x1 = 0.7896	28.31 ± 0.44
x1 = 0.8466	27.99 ± 0.44
x1 = 0.8951	27.67 ± 0.44
x1 = 0.9494	27.41 ± 0.44

CCCCCOC(C)=O [pentyl ethanoate] + CN(C)C=O
[1]
Conditions	surface tension liquid-gas [mN/m]
x1 = 0.05	34.9 ± 0.51
x1 = 0.0941	34.08 ± 0.51
x1 = 0.1466	33.24 ± 0.5
x1 = 0.198	32.24 ± 0.49
x1 = 0.2452	31.67 ± 0.48
x1 = 0.2909	30.99 ± 0.47
x1 = 0.3496	30.37 ± 0.47
x1 = 0.3978	29.95 ± 0.46
x1 = 0.4481	29.3 ± 0.46
x1 = 0.4998	28.87 ± 0.45
x1 = 0.5453	28.59 ± 0.45
x1 = 0.5998	28.05 ± 0.44
x1 = 0.6445	27.78 ± 0.44
x1 = 0.6901	27.39 ± 0.44
x1 = 0.7499	27.09 ± 0.43
x1 = 0.7958	26.83 ± 0.43
x1 = 0.8477	26.51 ± 0.43
x1 = 0.8965	26.23 ± 0.42
x1 = 0.9397	26.09 ± 0.42

CCCCCCOC(C)=O [hexyl ethanoate] + C1COCCO1
[1]
Conditions	surface tension liquid-gas [mN/m]
x1 = 0.0467	32.56 ± 0.49
x1 = 0.0925	32.06 ± 0.48
x1 = 0.1414	31.56 ± 0.48
x1 = 0.1905	31.1 ± 0.47
x1 = 0.2422	30.62 ± 0.47
x1 = 0.2921	30.17 ± 0.46
x1 = 0.3417	29.79 ± 0.46
x1 = 0.3934	29.43 ± 0.46
x1 = 0.4434	29.11 ± 0.45
x1 = 0.495	28.81 ± 0.45
x1 = 0.5433	28.56 ± 0.45
x1 = 0.5962	28.29 ± 0.44
x1 = 0.6408	28.09 ± 0.44
x1 = 0.6859	27.91 ± 0.44
x1 = 0.7406	27.71 ± 0.44
x1 = 0.7981	27.52 ± 0.44
x1 = 0.8426	27.38 ± 0.43
x1 = 0.8954	27.22 ± 0.43
x1 = 0.9448	27.12 ± 0.43

CN(C)C=O [dimethylformamide]
[2]
Conditions	mass density [kg/m3]	surface tension liquid-gas [mN/m]
–	943.81 ± 0.64	36.98 ± 0.54

C1COCCO1 [1,4-dioxane]
[2]
Conditions	mass density [kg/m3]	surface tension liquid-gas [mN/m]
–	1027.82 ± 0.6	32.71 ± 0.49
